Experimental findings from patent publication US20090110748A1, “Biocompatible Material and Process for Manufacturing the Same” (priority 2007, published 2009) are described below.

Assay [1] relates to osteoporotic model mice. As to the kind of experiment: Mineral concentration and ALP activity in mouse sera. The assay is classed as in vivo. To be noted: ovariectomized ICR female mice, fed test feeds for 2 months (doses Table 4). On the procedure: (§1) For study ICR female model mice of 10 weeks (of 20 g) were used. These mice underwent ovariectomy (OVX control group) and sham operation (sham operated group), and were subsequently fed with a conventional diet for 2 months, and then divided into 6 groups, each group having 10 mice. Of these, an OVX control group and a sham operated group were fed with 1.5 to 1.8% calcium containing feed which contained calcium carbonate as a calcium source. Further as a reference group, one group was treated with a bisphosphonate preparation (risedronate), which is an anti-osteoporotic agent showing obviously higher bone density. Remaining 3 groups were fed with special feeds, containing foodstuff and food additives. Combinations of foodstuff and food additives used in the present study are shown below in Table 4.
(§2) After being fed these feeds for 2 months, mice were decapitated for blood collection. Then serum was separated from the collected blood, and after that calcium, phosphorus, and magnesium concentrations and alkaline phosphatase level of the serum were determined. Furthermore, after a resection of femurs, a three-dimensional bone densitometry and bone structure analysis were conducted on the femoral distal epiphyses and diaphyses, using pQCT (Peripheral Quantitative Computed Tomography) and μCT (micro focus X-ray CT).
Subsequently, blood was collected from the tested mice of each group, and mineral concentration and ALP activity in serum were determined. Blood collection was conducted by decapitating under a twilight sleep. The collected blood stood for 1 hour at ice temperature, and thereafter the serum was separated by a centrifuge for 10 minutes at 1000 rpm. Calcium amount was determined by chelete coloring method. 50 μL of serum was added to 5 mL of a 0.88 M monoethanolamine buffer adjusted to pH=11, and a mixture of o-cresol-phthalein complexone and 8-quinolinol as a coloring agent was further added. The resulting mixture was sufficiently stirred and stood for 5 minutes, and thereafter absorbance at 570 nm determined using a spectrometer. Phosphorus was determined by direct molybdenum blue method. After 0.2 mL of serum was added to 5 mL of a coloring agent and the resulting mixture stood for 15 minutes at room temperature, absorbance at 690 nm was determined using a spectrometer. The coloring agent was prepared by adding a surfactant to a mixture of ammonium molybdate, ammonium ferrous sulfate and sulfate. Magnesium was determined by xylidyl blue method. 3 mL of a coloring agent was added to 20 μL of serum and the resulting mixture stood for 10 minutes at room temperature, and thereafter absorbance at 520 nm was determined using a spectrometer. The coloring agent was prepared by adding a surfactant to a mixture of xylylazo violet I and ethylene glycol tetraacetic acid.
Alkaline phosphatase was determined by phenyl phosphoric acid substrate method. After 50 μL of serum was added to 2 mL of a substrate buffer and heated at 37° C. for 15 minutes, 2 mL of 36 mM potassium ferricyanide. The resulting mixture was sufficiently stirred, and thereafter absorbance at 570 nm was determined using a spectrometer. The substrate buffer was prepared by adding a mixture of 4-aminoantipyrine and phenylphosphoric acid to 50 mM carbonate buffer adjusted to pH=10.5.
In all of these determinations assay kits for clinical and biochemical use manufactured by Wako Pure Chemicals, Co., Ltd. were used.

For assay [2], the system named is osteoporotic model mice. As to the kind of experiment: pQCT three-dimensional bone densitometry of femoral distal epiphyses and diaphyses. Type of assay: in vivo, mouse. To be noted: for Items showing a significant difference: number of the 14 pQCT parameters (epiphyses and diaphyses) differing significantly from OVX control group; for Epiphyses Bone Density, significant difference vs OVX control group / Epiphyses Cortical Bone Cross-Section, significant difference vs OVX control group / Epiphyses Cortical Bone Thickness, significant difference vs OVX control group / Epiphyses Trabecular Bone Density, significant difference vs OVX control group: femoral distal epiphyses. Here is the method:
as §1, §2
Subsequently, a bone mass density (mg/cm^3) as a physical quantity was analyzed separately for trabecular bones and cortical bones based on three-dimensional bone densitometry conducted using pQCT on the femoral distal epiphyses and diaphyses and cross-sectional images acquired in pQCT, and bone strength index was identified based on cortical bone width, second moment of area, and section modulus etc. Student's t-test was used for statistical treatment for comparison between the groups.

In assay [3] the test system is osteoporotic model mice. Briefly: μCT three-dimensional trabecular structure analysis of femoral distal epiphyses. The assay is classed as in vivo, mouse. Conditions: for Conclusion of 3-D image analysis: effects on bone density and trabecular structure: OVX mice, distal epiphyses and diaphyses, FIGS. 8 and 9; for Order according to the importance of the effects on improvement of trabecular bone structure: ranked after sham and risedronate groups. Here is the method: as §1, §2
For an analysis of the trabecular structure, three-dimensional image data of femoral distal epiphyses were acquired using X-ray μCT (MCT-CB130F, Hitachi Medico), of 8×8 μm focus, with micro focus X-ray tube. As conditions for imaging, tube voltage was 40 kV, tube current 100 μA, and voxel size 17.8×17.8×17.8 μm, so that 50 volume data for each were acquired. Three-dimensional images were reconstructed based on the acquired 50 two-dimensional images of a trabecular bone and a cortical bone. 3D parameters were then determined on these 3D images using trabecular structure measuring software (TRI/3D-BON; RATOC System Engineering, Co., Ltd). The determined structural parameters are listed below in Table 5.
Student's t-test was used for statistical treatment for comparison between the groups. Only the parameters showing significant difference in the OVX control group are compared to those in the remaining groups.

The mark [4] stands for this setting: pQCT, femoral diaphyses, p value, Student's t-test, 2 months feeding.
Where [5] appears, read: pQCT, femoral diaphyses, p value, Student's t-test, 2 months feeding, listed as risedronate.
Where [6] appears, read: pQCT, p value, Student's t-test, 2 months feeding.
[7] abbreviates: pQCT, p value, Student's t-test, 2 months feeding, listed as risedronate.

As to `O=P(O)(O)C(O)(Cc1cccnc1)P(=O)(O)O` [Risedronate, risedronate], in the assay with osteoporotic model mice [1], the “ALP activity in serum” value amounted to 3.65 ± 1.26 BL unit, the Ca in serum is on record as 9.02 ± 1.15 mg/dL, the Mg in serum is recorded as 3.12 ± 1.21 mg/dL and the P in serum turned out to be 6.95 ± 0.32 mg/dL. Moreover, the “Items showing a significant difference” value in the assay on osteoporotic model mice [2] was 6. Moreover, in the assay on osteoporotic model mice [2] (setting [4]), the “Diaphyses Cortical Bone Cross-Section, significant difference vs OVX control group” value is “p < 0.05” and the “Diaphyses Cortical Bone Thickness, significant difference vs OVX control group” value is recorded as “p < 0.05”. For the same compound, in the assay with osteoporotic model mice [2] (setting [5]), the “Diaphyses Cortical Bone Cross-Section, significant difference vs OVX control group” value was “significant increase” and the “Diaphyses Cortical Bone Thickness, significant difference vs OVX control group” value was “significant increase”. In addition, in the assay on osteoporotic model mice [2] (setting [6]), the “Epiphyses Bone Density, significant difference vs OVX control group” value was “p < 0.01”; the “Epiphyses Cortical Bone Cross-Section, significant difference vs OVX control group” value was “p < 0.05”; the “Epiphyses Cortical Bone Thickness, significant difference vs OVX control group” value is listed as “p < 0.05”; the “Epiphyses Trabecular Bone Density, significant difference vs OVX control group” value is recorded as “p < 0.05”. For the same compound, in the assay with osteoporotic model mice [2] (setting [7]), the “Epiphyses Bone Density, significant difference vs OVX control group” value is reported as “significant increase”; the “Epiphyses Cortical Bone Cross-Section, significant difference vs OVX control group” value is on record as “significant increase”; the “Epiphyses Cortical Bone Thickness, significant difference vs OVX control group” value is “significant increase”; the “Epiphyses Trabecular Bone Density, significant difference vs OVX control group” value is “significant increase”. Further, the “Number of parameters with significant effects on improvement of trabecular bone structure” value in the assay with osteoporotic model mice [3] (μCT, femoral distal epiphyses, vs OVX control group (Table 9)) is recorded as 12.

As for `CC(C)=CCC/C(C)=C/CC/C(C)=C/CC/C(C)=C/CC1=C(C)C(=O)c2ccccc2C1=O` [MK-4, Vitamin K2 (MK-4)], in the assay on osteoporotic model mice [1], the “ALP activity in serum” value came to 3.52 ± 1.82 BL unit, the Ca in serum came to 9.60 ± 0.51 mg/dL, the Mg in serum was determined as 2.67 ± 0.28 mg/dL and the P in serum turned out to be 6.96 ± 0.44 mg/dL. Further, the “Items showing a significant difference” value in the assay on osteoporotic model mice [2] turned out to be 2. Moreover, the “Diaphyses Trabecular Bone Density, significant difference vs OVX control group” value in the assay with osteoporotic model mice [2] (setting [4]) is “p < 0.05”. The “Conclusion of 3-D image analysis: effects on bone density and trabecular structure” value with osteoporotic model mice [3] is listed as “improvement in bone internal structure was observed as a prevalent effect”. For the same compound, the “Order according to the importance of the effects on improvement of trabecular bone structure” value with osteoporotic model mice [3] (μCT, femoral distal epiphyses) was “MK7, the composite and MK4 is arranged in this order”.

On to `CC(C)=CCC/C(C)=C/CC/C(C)=C/CC/C(C)=C/CC/C(C)=C/CC/C(C)=C/CC/C(C)=C/CC1=C(C)C(=O)c2ccccc2C1=O` [MK-7, Vitamin K2 (MK-7)], for which, in the assay with osteoporotic model mice [1], the “ALP activity in serum” value stood at 3.77 ± 1.76 BL unit, the Ca in serum is reported as 9.34 ± 1.50 mg/dL, the Mg in serum is given as 2.63 ± 0.63 mg/dL and the P in serum stood at 7.12 ± 0.64 mg/dL. In addition, in the assay with osteoporotic model mice [2], the “Items showing a significant difference” value is 4. Further, the “Diaphyses parameters, difference vs OVX control group” value in the assay on osteoporotic model mice [2] (pQCT, femoral diaphyses, all parameters) is listed as “no significant difference”. Besides, the “Conclusion of 3-D image analysis: effects on bone density and trabecular structure” value in the assay with osteoporotic model mice [3] is “both effects on an increased bone density and improved trabecular structure, with the improvement in trabecular structure being prevalent effect”. The “Order according to the importance of the effects on improvement of trabecular bone structure” value in the assay with osteoporotic model mice [3] (μCT, femoral distal epiphyses) is “MK7, the composite and MK4 is arranged in this order”.
